Reference: patent publication US20230122540A1, “SYSTEMS AND METHODS TO TRACK THE EVOLUTION OF SINGLE CELLS” (Genentech, Inc., priority 2020, published 2023)
“Also recorded” adds a separate entry of the source. Like-named read-outs stand apart in the source and are kept apart here. Each block holds one compound with its values, some of them ahead of it.

Assays:
PC9 cells [1] = assay: scRNA-seq gene expression in barcoded PC9 cells (Example 3); format: cell-based, human; conditions: for ISR pathway / ATF4 and SLC7A5 expression: Day 5 of treatment; for canonical MAPK target gene expression: day 5 of treatment
Text: The above-described workflow was used to evaluate adaptation of mutated EGFR lung cancer cells to treatment strategies including EGFR kinase inhibition (Erlotinib) and EGFR protein degradation (Degrader G-104 or Degrader) using the PC9 (non-small cell lung carcinoma) cell line model. Six hundred PC9 cells containing unique barcodes were expanded separately for 12 days. The clones were then pooled into groups of cells with replicate barcodes and subjected to a first scRNA-seq on Day 1. Subsequently, the groups of cells were treated with either DMSO (vehicle control), Erlotinib, or Degrader. On Day 5 of the treatment, a second scRNA-seq was performed to evaluate an initial response of the cells to the treatments. Treatment with Erlotinib or Degrader was continued for approximately two more months. At the endpoint of the treatment, a final scRNA-seq was performed on the surviving cells. scRNA-seq data was analyzed with Next Generation Sequencing technologies, and barcode quantities were determined for both treatments, as illustrated in FIGS. 4A-4B.
Single cell RNA-seq data was further analyzed to evaluate how Degrader resistant clones respond differently to Erlotinib versus Degrader. […] Compared to Degrader, Erlotinib activated genes involved in ER protein processing pathways.
Thus, PC9 cells were treated with either siNTC+Erlotinib, siEGFR+Erlotinib, or siEGFR+DMSO, then analyzed for ISR and MAPK genes after 72 hrs (via scRNA-seq), and assessed for cell viability at Day 6. […] Results shown in FIG. 11D illustrate decreased efficacy of Erlotinib when combined with siEGFR, as indicated by greater numbers of viable cells in the Erlotinib+siEGFR treatment group compared to treatment by only Erlotinib.

ATF4, CHOP, GADD34 = assay: qRT-PCR of pro-death genes downstream of ER stress; format: cell-based, human; conditions: for expression of key pro-death ISR genes downstream of ER stress (ATF4, CHOP, GADD34): PC9, HCC4006 and NCI-H1975 cells; for induction of pro-death ER stress genes: PC9 cells, with GNE-104, very low non-toxic concentrations
Description: RNA extraction and qRT-PCR: RNA was extracted using Qiagen RNeasy Plus kit following manufacturer's instruction. RNA was reverse transcribed using High-Capacity cDNA Reverse Transcription Kit (Thermo Fisher Scientific Cat. No. 4368814). qPCRs were performed using TaqMan™ Fast Advanced Master Mix (Thermo Fisher Scientific Cat. No. 4444557) on ABI QuantStudio 7 Flex Real-Time PCR Systems. HPRT1 was used as the internal control to quantify relative gene expression levels. Taqman probes were obtained from Thermo Fisher Scientific (Cat. No. 431182, 4448490). These probes were used in the study: ATF4 Hs00909569_g1, DDIT3/CHOP Hs00358796_g1, PPP1R15A/GADD34 Hs00169585_m1, SLC7A5 Hs01001183_m1, ETV4 Hs00385910_m1, SPRY4 Hs00540086_m1, DUSP6 Hs04329643_s1, HPRT1 Hs02800695_m1.

PC9 cells [2] = assay: Initial response of PC9 cells to Erlotinib (viability, phase contrast imaging); format: cell-based, human; conditions: within five days, compared to the DMSO control
Description: Six hundred PC9 cells containing unique barcodes were expanded separately for 12 days. The clones were then pooled into groups of cells with replicate barcodes and subjected to a first scRNA-seq on Day 1. Subsequently, the groups of cells were treated with either DMSO (vehicle control) or Erlotinib. On Day 5 of the treatment, a second scRNA-seq was performed to evaluate an initial response of the cells to the treatments.

PC9 cells [3] = assay: TraCe-seq experiment (barcoded PC9 cells, scRNA-seq on day four); format: cell-based, human; conditions: for cell cycle arrest (GO): fraction of cells in GO state inferred by gene expression, day four
Description: To conduct the TraCe-seq experiment, 600 PC9 cells carrying unique barcodes were randomly selected and these cells were expanded for ˜12 doublings to establish the starting population. Single cell transcriptional profiling on a fraction of this population at ˜30× coverage of the barcodes was performed to record the baseline transcriptional programs and relative clonal abundance. 200K of these cells were seeded and were treated with either erlotinib, GNE-104, or GNE-069. Cells were harvested on day four and profiled by 10×scRNA-seq to determine the relative fitness of each clone and capture treatment-induced transcriptional changes (FIG. 17D).
TraCe-Seq barcode assignment: TraCe-Seq barcode recovery from scRNA-Seq FASTQs was performed using Salmon (v. 0.1.1). Briefly, custom augmented Salmon index was created using human reference GRCh38 and transgene GFP fused to one of 100,000 30-nt GC-optimized barcode in library. Transcript expression of demultiplexed per-cell FASTQs were then quantified using custom Salmon index. Cells with single GFP-barcode expression were assigned to corresponding TraCe-Seq barcode. Cells with multiple TraCe-Seq barcodes expressed were assigned to a single TraCe-Seq barcode if expression one TraCe-Seq was 3-fold higher than other detected TraCe-Seq barcodes.

PC9 cells [4] = assay: Anti-growth effects in PC9 cells (clonogenic assay, cell counting, Incucyte imaging); format: cell-based, human; conditions: 1 μM
Description: Compound dose matching: […] Clonogenic assay: Cells were seeded at desired densities in two to three replicates in 6-well plates and allowed to attach overnight. The following day cells were treated with the indicated compounds. Media containing the appropriate compounds was replenished every 48-72 hours. At the end of the assay, the cells were washed once with PBS, fixed and stained with crystal violet solution (Sigma Aldrich, HT90132) for 20 minutes, washed with water, and allowed to dry before scanning. […] For experiments shown in FIG. 27B, cells were treated with either DMSO or 1 μM ISRIB (Tocris Cat. No. 5284) for 24 h, and then co-treated with EGFR inhibitors for 8 days.

PC9 and H1975 cells = assay: Clonogenic / CellTiter-Glo assay with pharmacological ER stress modulators; format: cell-based
Description: (§1) Clonogenic assay: Cells were seeded at desired densities in two to three replicates in 6-well plates and allowed to attach overnight. The following day cells were treated with the indicated compounds. Media containing the appropriate compounds was replenished every 48-72 hours. At the end of the assay, the cells were washed once with PBS, fixed and stained with crystal violet solution (Sigma Aldrich, HT90132) for 20 minutes, washed with water, and allowed to dry before scanning. For experiments shown in FIG. 18E erlotinib concentration were determined to match the cell viability effect to 1 μM GNE-069 in each cell line, so that 1 μM erlotinib was applied to PC-9 and HCC2935, and 100 nM erlotinib was applied to HCC4006 and HCC827. For experiments shown in FIG. 27B, cells were treated with either DMSO or 1 μM ISRIB (Tocris Cat. No. 5284) for 24 h, and then co-treated with EGFR inhibitors for 8 days. For other experiments cells were treated with 1 μM GNE-104 for 24 h, and then co-treated with 0.5 μg/ml Tunicamycin (Sigma Aldrich, T7765), or 1 nM Thapsigargin (Sigma Aldrich, T9033) for three days.
Cell viability and cell death quantification: For experiments shown in FIGS. 24C, 27D, the indicated cells were seeded at desired densities in replicates in 24-well plates and allowed to attach overnight. The following day cells were treated with the indicated compounds. Media containing the appropriate compounds was replenished every 48 hours. At each media change, cell viabilities were quantified using CellTiter-Glo Luminescent Cell Viability Assay (Promega, G7572). For experiments shown in FIG. 191 and FIG. 29D, PC9 cells were seeded in replicates in 96-well plates and allowed to attach overnight. The following day cells were treated with the indicated compounds or compound combinations at the indicated concentrations. Induction of cell death was quantified 24 h post-treatment using Caspase-Glo 3/7 Assay System (Promega, G8093) and cell survival were measured 72 h post-treatment using CellTiter-Glo Luminescent Cell Viability Assay (Promega, G7572). […]

[5] = Crystal violet % Survival with ISR modulators (Example 3); format: cell-based
Description: Tunicamycin and Thapsigargin were used as inducers of ER stress, and Integrated Stress Response Inhibitor (ISRIB) was used to inhibit ISR activation. Cells were treated with Degrader, Degrader+Tunicamycin, or Degrader+Thapsigargin to assess the effect of ER stress on Degrader efficacy. In another experimental group, cells were treated either with Degrader, Erlotinib, or Erlotinib and ISRIB.

EGFR = target: T1, EGFR (Homo sapiens, UniProt P00533, DEL746-750); assay: Western blot of EGFR and pEGFR in HCC827 cells; format: cell-based; conditions: for EGFR degradation: HCC827 cells
T1 construct: does-dependent EGFR degradation induced by GNE-104 in HCC827 cells; endogenous in cells; host or cells: HCC827
Description: Immunoblotting: Immunoblotting performed using standard methods. Cells were briefly washed in ice-cold PBS and lysed in the following lysis buffer (1% NP40, 50 mM Tris, pH 7.8, 150 mM NaCl, 5 mM EDTA) plus protease inhibitor mixture (Complete mini tablets, Roche Applied Science, 11836170001) and phosphatase inhibitor mix (Thermo Fisher Scientific, 78420). Lysates centrifuged at 15,000 rpm for 10 minutes at 4° C. and the protein concentration determined by BCA (Thermo Fisher Scientific, 23227). Equal amounts of protein were resolved by SDS-PAGE on NuPAGE, 4-12% Bis-Tris Gels (Thermo Fisher Scientific, WG-1403) and transferred to nitrocellulose membrane (Bio-Rad, 170-4159). Membranes were blocked in blocking buffer (Li-Cor, 927-40000), incubated overnight with the indicated primary antibodies and analyzed by the addition of secondary antibodies IRDye 680LT Goat anti-Mouse IgG (Li-Cor, 926-68050) or IRDye 800CW Goat anti-Rabbit IgG (Li-Cor, 926-32211). The membranes were visualized on a Li-Cor Odyssey CLx Scanner. Anti-EGFR (MI-12-1) purchased from Medical and Biological Labs, anti-pEGFR (3777), anti β-Tubulin (2146) and anti-β-Actin (4970) purchased from Cell Signaling Technology. IR-conjugated secondary antibodies Goat anti-Mouse 680LT (926-68020), and Goat anti-Rabbit 800CW (926-32211) purchased from Li-Cor.

[6] = test system: common EGFR mutant variants; assay: in vitro kinase inhibition assay; format: biochemical; conditions: panel of 218 kinases
H1975 cells = assay: Crystal violet viability of H1975 cells, Osimertinib plus Degrader (Example 3); format: cell-based, human; conditions: 100 nM Osimertinib 4 hours, then + 1 uM Degrader 24 hours
Description: H1975 cells were treated first for 4 hours with 100 nM of the kinase inhibitor Osimertinib, then subjected to co-treatment with 100 nM Osimertinib+1 uM of Degrader for 24 hours.

[7] = test system: EGFR-mutant lung cancer cell lines; assay: Clonogenic and CellTiter-Glo assay in EGFR-mutant lung cancer cell lines; format: cell-based, human; conditions: multiple EGFR-mutant lung cancer cell lines, vs erlotinib or GNE-069
Description: as §1, with “For experiments shown in FIG. 27B, cells were treated with either DMSO or 1 μM ISRIB (Tocris Cat. No. 5284) for 24 h, and then co-treated with EGFR inhibitors for 8 days. For other experiments cells were treated with 1 μM GNE-104 for 24 h, and then co-treated with 0.5 μg/ml Tunicamycin (Sigma Aldrich, T7765), or 1 nM Thapsigargin (Sigma Aldrich, T9033) for three days.” left out
Cell viability and cell death quantification: For experiments shown in FIGS. 24C, 27D, the indicated cells were seeded at desired densities in replicates in 24-well plates and allowed to attach overnight. […] At each media change, cell viabilities were quantified using CellTiter-Glo Luminescent Cell Viability Assay (Promega, G7572). […] Induction of cell death was quantified 24 h post-treatment using Caspase-Glo 3/7 Assay System (Promega, G8093) and cell survival were measured 72 h post-treatment using CellTiter-Glo Luminescent Cell Viability Assay (Promega, G7572). […]

Compound: C#Cc1cccc(Nc2ncnc3cc(OCCOC)c(OCCOC)cc23)c1 [Erlotinib]
ISR pathway / ATF4 and SLC7A5 expression (PC9 cells [1]): additionally upregulated on Day 5 of Erlotinib treatment
canonical MAPK target gene expression (PC9 cells [1]): strongly suppressed canonical MAPK target genes
expression of key pro-death ISR genes downstream of ER stress (ATF4, CHOP, GADD34) (ATF4, CHOP, GADD34): significantly induced expression of key pro-death ISR genes
reduction in viability (PC9 cells [2]): greater than 98%
cell cycle arrest (GO) (PC9 cells [3]): far greater cell cycle arrest (GO) than GNE-104
anti-growth effects (inhibiting cell growth) (PC9 cells [4]): comparable activity by all three measures

Compound: C/C=C(/C)C(=O)O[C@H]1C(C)=C2[C@H]([C@@H]1OC(=O)CCCCCCC)[C@@](C)(OC(C)=O)C[C@H](OC(=O)CCC)[C@@]1(O)[C@H]2OC(=O)[C@@]1(C)O [thapsigargin]
induction of pro-death ER stress genes (ATF4, CHOP, GADD34): greatly induced pro-death ER stress genes
cytotoxic activity of GNE-104 on co-treatment (PC9 and H1975 cells): enhanced the cytotoxic activity of the degrader GNE-104

Compound: tunicamycin
induction of pro-death ER stress genes (ATF4, CHOP, GADD34): greatly induced pro-death ER stress genes
cytotoxic activity of GNE-104 on co-treatment (PC9 and H1975 cells; PC9 cells, very low non-toxic concentrations of ER stress inducer): enhanced the cytotoxic activity of the degrader GNE-104

Compound: O=C(COc1ccc(Cl)cc1)NC1CCC(NC(=O)COc2ccc(Cl)cc2)CC1 (centres unmarked) [ISRIB]
activation of ATF4, CHOP, GADD34 induced by EGFR kinase inhibitors (ATF4, CHOP, GADD34; ISRIB for 24 hours before adding EGFR kinase inhibitor): blunted activation of ATF4, CHOP, and GADD34
efficacy of Erlotinib on addition of ISRIB (cell viability) [5]: loss of efficacy of Erlotinib
cell killing by EGFR kinase inhibitors (PC9 and H1975 cells; ISRIB pre-treatment, PC9 and H1975 cells): decreased cell killing in both PC9 and H1975 cells

Compound: C#Cc1cccc(Nc2ncnc3cc(OCCOC)c(OCCOCC#CC#CCOCC(=O)N[C@H](C(=O)N4C[C@@H](O)CC4C(=O)NCc4ccc(-c5scnc5C)cc4)C(C)(C)C)cc23)c1 (stereo in doubt) [GNE-069, (2R,4S)-1-((S)-2-(2-((6-(2-((4-((3-Ethynylphenyl)amino)-7-(2-methoxyethoxy)quinazolin-6-yl)oxy)ethoxy)hexa-2,4-diyn-1-yl)oxy)acetamido)-3,3-dimethylbutanoyl)-4-hydroxy-N-(4-(4-methylthiazol-5-yl)benzyl)pyrrolidine-2-carboxamide]
EGFR degradation (EGFR): fails to engage VHL (due the specific stereochemistry in the VHL-binding moiety) and degrade EGFR
cell cycle arrest (GO) (PC9 cells [3]): far greater cell cycle arrest (GO) than GNE-104
anti-growth effects (inhibiting cell growth) (PC9 cells [4]): comparable activity by all three measures
potency and selectivity profile in in vitro kinase inhibition assays [6]: comparable potency and selectivity profile as GNE-104

Compound: C=CC(=O)Nc1cc(Nc2nccc(-c3cn(C)c4ccccc34)n2)c(OC)cc1N(C)CCN(C)C [osimertinib]
expression of key pro-death ISR genes downstream of ER stress (ATF4, CHOP, GADD34) (ATF4, CHOP, GADD34): significantly induced expression of key pro-death ISR genes

phospho-EGFR levels (EGFR): potently suppressed phospho-EGFR levels
Compound: C#Cc1cccc(Nc2ncnc3cc(OCCOC)c(OCCOCC#CC#CCOCC(=O)N[C@H](C(=O)N4C[C@H](O)C[C@@H]4C(=O)NCc4ccc(-c5scnc5C)cc4)C(C)(C)C)cc23)c1 [GNE-104, (2R,4R)-1-((S)-2-(2-((6-(2-((4-((3-Ethynylphenyl)amino)-7-(2-methoxyethoxy)quinazolin-6-yl)oxy)ethoxy)hexa-2,4-diyn-1-yl)oxy)acetamido)-3,3-dimethylbutanoyl)-4-hydroxy-N-(4-(4-methylthiazol-5-yl)benzyl)pyrrolidine-2-carboxamide]
effect on kinase inhibitor activity (H1975 cells): attenuated kinase inhibitor activity
anti-growth effect [7]: reduced anti-growth effect
EGFR degradation (EGFR): significant dose-dependent degradation of EGFR
ISR pathway / ATF4 and SLC7A5 expression (PC9 cells [1]): does not activate the ISR pathway
canonical MAPK target gene expression (PC9 cells [1]): strongly suppressed canonical MAPK target genes
reduction of absolute number and diversity of TraCe-seq barcodes (PC9 cells [3]; day four of treatment): less effective in reducing both the absolute number and the diversity of TraCe-seq barcodes
anti-growth effects (inhibiting cell growth) (PC9 cells [4]): far less efficient in inhibiting cell growth compared to erlotinib and GNE-069; also recorded: less efficacious
